Data on seven compounds can be found in ChEMBL document CHEMBL1201862, “PubChem BioAssay data set” (2004).

SMILES strings stand for the structures.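 Protocol summary: plate cells (96-well), add compound at 5 concentrations, incubate 48 h, interpolate endpoints linearly. Here, GI50 denotes the concentration required for 50% inhibition of growth.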 Calls of active or inactive are those of the source. No stated cut-off is given here; in the data, active = GI50 up to about 1.1 µM and inactive = higher. Where only a bound is given, the exact number is not on record here.

Holding throughout (assay): NCI anticancer screen, dose series, 48 h
The subject of experiment [1] is HCC 2998.
Experiment [2] concerns HT-29.
The subject of experiment [3] is IGROV-1.
The subject of experiment [4] is OVCAR-5.
Experiment [5] has as its system OVCAR-8.
In experiment [6] the test system is NCI-H226.
Experiment [7] deals with COLO 205.
Experiment [8] has as its system UACC-62.
Experiment [9] deals with RPMI-8226.
Experiment [10] has as its system BT-549.
Experiment [11] deals with SF-268.
Experiment [12] concerns SW-620.
For experiment [13], the system named is MDA-N.
The test system of experiment [14] is PC-3.
In experiment [15] the test system is U-251.
The test system of experiment [16] is Hs-578T.
Experiment [17] relates to MDA-MB-231.
Experiment [18] deals with DU-145.
In experiment [19] the test system is HOP-62.
The test system of experiment [20] is OVCAR-4.

Consider `C[C@H]1CCC/C=C/[C@@H]2C[C@H](OC3OC(CO)C(O)C(O)C3O)C[C@H]2[C@H](O)/C=C/C(=O)O1` (stereo partly drawn), for which the GI50 in [1] is 29.7 µM (inactive); in experiment [2], 33.2 µM (inactive); in experiment [3], > 100 µM (inactive); in experiment [4] it was 37.3 µM (inactive); in experiment [5] it was 39.5 µM (inactive); in [6], 22.5 µM (inactive). In addition, the GI50 in experiment [7] is 17.2 µM (inactive); in experiment [8], 35.6 µM (inactive); in [9], 53.8 µM (inactive); in experiment [10] it was > 100 µM (inactive); in experiment [11], 72.8 µM (inactive); in experiment [12], 35.9 µM (inactive). Also, the GI50 in [13] was 36.3 µM (inactive); in experiment [14], 64.6 µM (inactive); in experiment [15], 94 µM (inactive); in experiment [16] it was 30.1 µM (inactive); in [17], 20.4 µM (inactive); in experiment [18] it was > 100 µM (inactive). Further, the values for the GI50 in experiment [19] and in experiment [20] were > 100 µM (inactive) and 78.5 µM (inactive), respectively.

`Cc1ccc(-c2cc(-c3ccc(Cl)cc3)nc(/N=C3\C(=O)N(CN4CCOCC4)c4ccc(Cl)cc43)n2)cc1`: the GI50 in experiment [1] is 19.1 µM (inactive); in experiment [2], 16.3 µM (inactive); in [3], 13 µM (inactive); in [4] it was 26.4 µM (inactive); in experiment [5] it was 20.9 µM (inactive); in [6], 54.1 µM (inactive). The GI50 in experiment [7] was 20.2 µM (inactive); in experiment [8], 19.8 µM (inactive); in experiment [9], 0.0139 µM (active); in experiment [10], 21.8 µM (inactive); in [11], 22.6 µM (inactive); in experiment [12], 6.49 µM (inactive). Besides, the GI50 in experiment [13] was 32.6 µM (inactive); in [14], 30 µM (inactive); in experiment [15] it was 17.7 µM (inactive); in [16], 24.3 µM (inactive); in experiment [17] it was 30 µM (inactive); in [18], 20.5 µM (inactive). Besides, the GI50 in [19] was 20.3 µM (inactive); in experiment [20], 29.3 µM (inactive).

Turning to `CN1CCN(c2cc3[nH]c(-c4ccc(Cl)cc4)nc3cc2F)CC1`, the GI50 is 4.71 µM (inactive) in experiment [1]; 15.7 µM (inactive) in experiment [3]; 15.2 µM (inactive) in experiment [4]; 26.9 µM (inactive) in experiment [5]; 6.81 µM (inactive) in experiment [6]; 18.2 µM (inactive) in experiment [7]. For the same compound, the GI50 in [8] was 4.32 µM (inactive); in experiment [9], 14.1 µM (inactive); in experiment [10], 15.8 µM (inactive); in [11] it was 16.2 µM (inactive); in [12] it was 21.8 µM (inactive); in [13], 12.8 µM (inactive). The GI50 in experiment [14] was 16.8 µM (inactive); in [15], 21.4 µM (inactive); in experiment [16], 16.1 µM (inactive); in [17], 17.4 µM (inactive); in experiment [18], 22.1 µM (inactive); in experiment [19], 16.8 µM (inactive). Besides, the GI50 in [20] is 22.8 µM (inactive).

As for `Cc1ccc2nc3c(=O)[nH]c(=O)nc-3n(C)c2c1C`, the GI50 in [1], in experiment [2], in experiment [3], in [4], in experiment [5] and in experiment [6] was > 100 µM (inactive) throughout. Moreover, the GI50 in experiment [7], in [8], in [9], in experiment [10], in experiment [11] and in experiment [12] was > 100 µM (inactive) in each case. Moreover, the GI50 was > 100 µM (inactive) in experiment [13]; > 100 µM (inactive) in experiment [14]; > 100 µM (inactive) in [15]; 12.1 µM (inactive) in experiment [16]; > 100 µM (inactive) in experiment [17]; > 100 µM (inactive) in experiment [18]. Also, the GI50 in [19] and in [20] was > 100 µM (inactive) in each case.

Regarding `O=S1(=O)CS(=O)(=O)OCCO1`, the GI50 in experiment [1] was 46.6 µM (inactive); in [2], 63.1 µM (inactive); in experiment [3], 33.4 µM (inactive); in experiment [4], 85.5 µM (inactive); in experiment [5], 55.3 µM (inactive); in [6], 41.4 µM (inactive). For the same compound, the GI50 in experiment [7] was 46.6 µM (inactive); in [8], 6.43 µM (inactive); in experiment [9] it was 62.5 µM (inactive); in experiment [10], 37.8 µM (inactive); in [11] it was 15.1 µM (inactive); in experiment [12], 40.9 µM (inactive). Moreover, the GI50 in experiment [13] was 33.8 µM (inactive); in [14] it was 82 µM (inactive); in [15] it was 21.3 µM (inactive); in experiment [16], 54.3 µM (inactive); in experiment [17], 128 µM (inactive); in experiment [18], 51.1 µM (inactive). Besides, the figures for the GI50 in [19] and in experiment [20] were 12.4 µM (inactive) and 52.8 µM (inactive), respectively.

In the case of `CC(C)(O)C1CC[C@]2(C)CC[C@]3(C)[C@H](CC[C@@H]4[C@@]5(C)CC[C@H](O)C(C)(C)[C@@H]5CC[C@]43C)[C@@H]12` (stereo partly drawn), the GI50 is 26.8 µM (inactive) in [1]; 35.8 µM (inactive) in [2]; 33.3 µM (inactive) in [3]; 32.5 µM (inactive) in [4]; 32.7 µM (inactive) in [5]; 44.4 µM (inactive) in experiment [6]. Besides, the GI50 in experiment [7] is 29.7 µM (inactive); in experiment [8] it was 39 µM (inactive); in experiment [9] it was 34.3 µM (inactive); in experiment [10], 29.2 µM (inactive); in [11] it was 31 µM (inactive); in experiment [13], 47.8 µM (inactive). The GI50 is 30.3 µM (inactive) in experiment [14]; 35.6 µM (inactive) in [15]; 22.7 µM (inactive) in experiment [16]; > 100 µM (inactive) in experiment [17]; 23.2 µM (inactive) in [18]; 25.8 µM (inactive) in [19]. Further, the GI50 in experiment [20] is 27.2 µM (inactive).

With `O=Cc1ccc(-c2cccs2)s1`, the GI50 in experiment [1] was 72.8 µM (inactive); in [2], 63.5 µM (inactive); in [3] it was 12.6 µM (inactive); in experiment [4], 16.7 µM (inactive); in experiment [5], > 100 µM (inactive); in [6], 1.94 µM (inactive). The GI50 in [7] is 42.3 µM (inactive); in experiment [8] it was 1.16 µM (inactive); in experiment [9] it was 57.5 µM (inactive); in [10], 51.3 µM (inactive); in experiment [11], > 96.8 µM (inactive); in [12], 72.4 µM (inactive). The GI50 in experiment [13] was > 100 µM (inactive); in [14], > 100 µM (inactive); in experiment [15], 12.2 µM (inactive); in experiment [16], 34.1 µM (inactive); in experiment [17], > 80 µM (inactive); in [18], > 100 µM (inactive). Besides, the figures for the GI50 in [19] and in [20] were 67.6 µM (inactive) and 56.4 µM (inactive), respectively.
